According to patent publication US11897796B2, “Compositions of heterocyclic compounds and uses as sulfidogenesis inhibitors” (ChampionX USA Inc., priority 2020, dated 2024):
Like-named read-outs stand apart in the source and are kept apart here.

Tests used:
[1] = tested on: sulfur-utilizing prokaryotes; details: after 8 weeks; for Average reduction in biogenic sulfide: compared to untreated; for Average Sulfide: field water, 37° C.
Protocol: Sample Preparation and Test Conditions. Field water samples were collected and shipped under anoxic conditions. Prior to setting up the bottle test, the water was sparged with carbon dioxide in a nitrogen environment overnight to remove the existing hydrogen sulfide. The water sample was then supplemented with 50 mg/L acetate, 5 mg/L propionate, and 5 mg/L butyrate and trace elements and vitamins. Fluids (100 mL) were aliquoted into 125 mL glass serum bottles containing a carbon steel 1018 ball bearing. Triplicate experiments were performed. Three bottles were left untreated and three bottles were treated each with 50 ppm and 80 ppm of the desired chemistry. Samples were incubated at 37° C. for 8 weeks.
(§1) A sulfide test kit (Code 4456-01, available from LaMotte) was used to test the efficacy of 3,3′-methylenebis[5-methyloxazolidine]

[2] = tested on: sulfur-utilizing prokaryotes; details: after 6 weeks; for Average Sulfide: Source 2 field water, 37° C.
Protocol: Sample Preparation and Test Conditions. Field water samples were treated with additional organic acids (e.g., Source 2) and were collected and shipped under anoxic conditions. Prior to setting up the bottle test, the water was sparged with carbon dioxide in a nitrogen environment overnight to remove the existing hydrogen sulfide. The water sample was then supplemented with 1 mM acetate, trace elements, and vitamins. Fluids (100 mL) were aliquoted into 125 mL glass serum bottles containing a carbon steel 1018 ball bearing. Triplicate experiments were performed. Three bottles were left untreated and three bottles were treated each at a concentration of 80 ppm, 120 ppm, and 150 ppm of the desired chemistry based on the total weight of the sample. Samples were incubated at 37° C. for 6 weeks.
as §1

[3] = tested on: sulfate reducing microorganisms
Protocol: Sample preparation and test conditions. The sulfidogenesis inhibitor MBO was tested using a pressurized bioreactor system. Two sand packed bioreactors were used to establish a sour population of sulfate reducing microorganisms with a seawater mixture for one month. The pressurized bioreactors maintained a flow rate of 0.05 mL/minute and were held at a temperature of 30° C. and a pressure of 1000 psig. Once both bioreactors contained sufficient sulfide in the effluent, one bioreactor remained untreated (control bioreactor) and the other bioreactor was dosed with MBO (test bioreactor) throughout the remaining four months of the study. The sulfide levels were measured in the control and test bioreactors weekly. MBO was dosed continuously in increasing increments at 25, 50, 100, and 150 ppm for roughly five weeks of the experiment. Next, a 4-hour batch treatment of MBO at 500 ppm was also tested twice followed by a low continuous dosage of MBO at 80 ppm and 100 ppm, respectively. The pH of the system was then decreased from 8.5 to 7.5 and then 7.5 to 6.5 to observe the effect of pH on MBO's efficacy at inhibiting sulfidogenesis. Once the pH of the bioreactor had stabilized at 6.5, MBO was dosed continuously in decreasing increments at 150 ppm, 100 ppm, 80 ppm and 50 ppm. At the end of the study, the dosing of MBO was ceased to monitor when sulfide levels would return in the test bioreactor.
The pH measured in the system and the dosage of MBO throughout the study is recorded as well.

CC1CN(CN2COC(C)C2)CO1 (stereo not drawn) [MBO, 3,3′-methylenebis[5-methyloxazolidine]]
Average reduction in biogenic sulfide ([1]; MBO 50 ppm): 37.03%
Average Sulfide ([1]; MBO 50 ppm): 4.64 ppm
Average reduction in biogenic sulfide ([1]; MBO 80 ppm): 93.81%
Average Sulfide ([1]; MBO 80 ppm): 0.46 ppm
Average Sulfide ([2]; MBO 80 ppm): 0.09 ppm
Average reduction in biogenic sulfide ([2]; MBO 80 ppm): 98.4%
Average Sulfide ([2]; MBO 120 ppm): 0.09 ppm
Average reduction in biogenic sulfide ([2]; MBO 120 ppm): 98.4%
Average Sulfide ([2]; MBO 150 ppm): 0.13 ppm
Average reduction in biogenic sulfide ([2]; MBO 150 ppm): 97.8%
Test Bioreactor Sulfide ([3]; Day 21 (as printed, between days 30 and 35), dosage of MBO 25 ppm, pH 8.5): 44.6 mg/L
Test Bioreactor Sulfide ([3]; Day 30, dosage of MBO 25 ppm, pH 8.5): 34.9 mg/L
Test Bioreactor Sulfide ([3]; Day 35, dosage of MBO 25 ppm, pH 8.5): 45.7 mg/L
Test Bioreactor Sulfide ([3]; Day 37, dosage of MBO 50 ppm, pH 8.5): 46.2 mg/L
Test Bioreactor Sulfide ([3]; Day 38, dosage of MBO 50 ppm, pH 8.5): 48.7 mg/L
Test Bioreactor Sulfide ([3]; Day 42, dosage of MBO 50 ppm, pH 8.5): 44.8 mg/L
Test Bioreactor Sulfide ([3]; Day 44, dosage of MBO 100 ppm, pH 8.5): 44.2 mg/L
Test Bioreactor Sulfide ([3]; Day 45, dosage of MBO 100 ppm, pH 8.5): 41.0 mg/L
Test Bioreactor Sulfide ([3]; Day 46, dosage of MBO 100 ppm, pH 8.5): 10.3 mg/L
Test Bioreactor Sulfide ([3]; Day 49, dosage of MBO 100 ppm, pH 8.5): 3.1 mg/L
Test Bioreactor Sulfide ([3]; Day 51, dosage of MBO 100 ppm, pH 8.5): 0.7 mg/L
Test Bioreactor Sulfide ([3]; Day 52, dosage of MBO 100 ppm, pH 8.5): 0.5 mg/L
Test Bioreactor Sulfide ([3]; Day 53, dosage of MBO 100 ppm, pH 8.5): 3.1 mg/L
Test Bioreactor Sulfide ([3]; Day 56, dosage of MBO 100 ppm, pH 8.5): 5.3 mg/L
Test Bioreactor Sulfide ([3]; Day 58, dosage of MBO 150 ppm, pH 8.5): 4.9 mg/L
Test Bioreactor Sulfide ([3]; Day 60, dosage of MBO 150 ppm, pH 8.5): 1.0 mg/L
Test Bioreactor Sulfide ([3]; Day 63, dosage of MBO 150 ppm, pH 8.5): 21.5 mg/L
Test Bioreactor Sulfide ([3]; Day 65, dosage of MBO 150 ppm, pH 8.5): 19.9 mg/L
Test Bioreactor Sulfide ([3]; Day 67, dosage of MBO 150 ppm, pH 8.5): 25.7 mg/L
Test Bioreactor Sulfide ([3]; Day 70, dosage of MBO 150 ppm, pH 8.5): 29.1 mg/L
Test Bioreactor Sulfide ([3]; Day 72, dosage of MBO 0 ppm (dosing paused after 150 ppm), pH 8.5): 29.4 mg/L
Test Bioreactor Sulfide ([3]; Day 74, dosage of MBO 0 ppm (dosing paused after 150 ppm), pH 8.5): 21.9 mg/L
Test Bioreactor Sulfide ([3]; Day 77, dosage of MBO 0 ppm (dosing paused after 150 ppm), pH 8.5): 32.0 mg/L
Test Bioreactor Sulfide ([3]; Day 78, dosage of MBO 500 ppm (4 hours batch) + 80 ppm, pH 8.5): 37.2 mg/L
Test Bioreactor Sulfide ([3]; Day 79, dosage of MBO 80 ppm after 500 ppm batch, pH 8.5): 37.8 mg/L
Test Bioreactor Sulfide ([3]; Day 80, dosage of MBO 80 ppm after 500 ppm batch, pH 8.5): 23.0 mg/L
Test Bioreactor Sulfide ([3]; Day 81, dosage of MBO 80 ppm after 500 ppm batch, pH 8.5): 27.7 mg/L
Test Bioreactor Sulfide ([3]; Day 84, dosage of MBO 80 ppm after 500 ppm batch, pH 8.5): 31.8 mg/L
Test Bioreactor Sulfide ([3]; Day 86, dosage of MBO 80 ppm after 500 ppm batch, pH 3.5 (so in the source)): 32.0 mg/L
Test Bioreactor Sulfide ([3]; Day 88, dosage of MBO 0 ppm (dosing paused after 80 ppm), pH 8.5): 29.1 mg/L
Test Bioreactor Sulfide ([3]; Day 91, dosage of MBO 0 ppm (dosing paused after 80 ppm), pH 8.5): 25.6 mg/L
Test Bioreactor Sulfide ([3]; Day 93, dosage of MBO 500 ppm (4 hours batch) + 100 ppm, pH 8.5): 30.7 mg/L
Test Bioreactor Sulfide ([3]; Day 94, dosage of MBO 100 ppm after 500 ppm batch, pH 8.5): 24.1 mg/L
Test Bioreactor Sulfide ([3]; Day 95, dosage of MBO 100 ppm after 500 ppm batch, pH 8.5): 24.2 mg/L
Test Bioreactor Sulfide ([3]; Day 98, dosage of MBO 100 ppm after 500 ppm batch, pH 8.5): 20.3 mg/L
Test Bioreactor Sulfide ([3]; Day 100, dosage of MBO 100 ppm, pH 7.5): 20.1 mg/L
Test Bioreactor Sulfide ([3]; Day 101, dosage of MBO 100 ppm, pH 7.5): 9.9 mg/L
Test Bioreactor Sulfide ([3]; Day 102, dosage of MBO 100 ppm, pH 7.5): 16.6 mg/L
Test Bioreactor Sulfide ([3]; Day 105, dosage of MBO 100 ppm, pH 7.5): 22.5 mg/L
Test Bioreactor Sulfide ([3]; Day 107, dosage of MBO 100 ppm, pH 6.5): 20.2 mg/L
Test Bioreactor Sulfide ([3]; Day 108, dosage of MBO 100 ppm, pH 6.5): 23.4 mg/L
Test Bioreactor Sulfide ([3]; Day 109, dosage of MBO 100 ppm, pH 6.5): 20.9 mg/L
Test Bioreactor Sulfide ([3]; Day 112, dosage of MBO 100 ppm, pH 6.5): 18.2 mg/L
Test Bioreactor Sulfide ([3]; Day 114, dosage of MBO 150 ppm, pH 6.5): 16.3 mg/L
Test Bioreactor Sulfide ([3]; Day 115, dosage of MBO 150 ppm, pH 6.5): 7.7 mg/L
Test Bioreactor Sulfide ([3]; Day 116, dosage of MBO 150 ppm, pH 6.5): 2.9 mg/L
Test Bioreactor Sulfide ([3]; Day 119, dosage of MBO 150 ppm, pH 6.5): 0.7 mg/L
Test Bioreactor Sulfide ([3]; Day 121, dosage of MBO 150 ppm, pH 6.5): 0.5 mg/L
Test Bioreactor Sulfide ([3]; Day 122, dosage of MBO 150 ppm, pH 6.5): 0.5 mg/L
Test Bioreactor Sulfide ([3]; Day 123, dosage of MBO 150 ppm, pH 6.5): 0.5 mg/L
Test Bioreactor Sulfide ([3]; Day 126, dosage of MBO 150 ppm, pH 6.5): 0.5 mg/L
Test Bioreactor Sulfide ([3]; Day 128, dosage of MBO 100 ppm (decreasing increments), pH 6.5): 0.5 mg/L
Test Bioreactor Sulfide ([3]; Day 129, dosage of MBO 100 ppm (decreasing increments), pH 6.5): 0.5 mg/L
Test Bioreactor Sulfide ([3]; Day 130, dosage of MBO 100 ppm (decreasing increments), pH 6.5): 0.5 mg/L
Test Bioreactor Sulfide ([3]; Day 133, dosage of MBO 100 ppm (decreasing increments), pH 6.5): 0.5 mg/L
Test Bioreactor Sulfide ([3]; Day 135, dosage of MBO 80 ppm (decreasing increments), pH 6.5): 0.5 mg/L
Test Bioreactor Sulfide ([3]; Day 136, dosage of MBO 80 ppm (decreasing increments), pH 6.5): 0.5 mg/L
Test Bioreactor Sulfide ([3]; Day 137, dosage of MBO 80 ppm (decreasing increments), pH 6.5): 0.5 mg/L
Test Bioreactor Sulfide ([3]; Day 140, dosage of MBO 80 ppm (decreasing increments), pH 6.5): 0.5 mg/L
Test Bioreactor Sulfide ([3]; Day 141, dosage of MBO 50 ppm (decreasing increments), pH 6.5): 0.5 mg/L
Test Bioreactor Sulfide ([3]; Day 144, dosage of MBO 50 ppm (decreasing increments), pH 6.5): 0.5 mg/L
Test Bioreactor Sulfide ([3]; Day 147, dosage of MBO 50 ppm (decreasing increments), pH 6.5): 0.5 mg/L
Test Bioreactor Sulfide ([3]; Day 150, dosage of MBO 0 ppm (dosing ceased at end of study), pH 6.5): 0.5 mg/L
Test Bioreactor Sulfide ([3]; Day 151, dosage of MBO 0 ppm (dosing ceased at end of study), pH 6.5): 0.5 mg/L
Test Bioreactor Sulfide ([3]; Day 154, dosage of MBO 0 ppm (dosing ceased at end of study), pH 6.5): 0.5 mg/L
sulfide levels in the test bioreactor, lowest reached ([3]; dosage of MBO at 100 ppm, initial decrease, sulfide levels started to increase again afterwards): 0.5 mg/L
sulfide levels in the test bioreactor ([3]; pH 6.5, dosing MBO at 150 ppm, stayed throughout remainder of study through decreasing dosages): 0.5 mg/L
effect on sulfide levels in the test bioreactor ([3]; two high batch dosages of MBO at 500 ppm followed by low continuous dosage at 80 and 100 ppm): did not further decrease sulfide levels
